# ± gives the expanded uncertainty stated by the source.
# How the values were obtained:
# [1] = xn = mol fraction of the nth substance listed; conditions: 303.15 K, 100 kPa, Liquid; for viscosity: Capillary tube (Ostwald / Ubbelohde) method; for speed of sound: Frequency=2 MHz, Linear variable-path acoustic interferometer; for mass density: Pycnometric method
# [2] = 303.15 K, 100 kPa, Liquid; for viscosity: Capillary tube (Ostwald / Ubbelohde) method; for speed of sound: Frequency=2 MHz, Linear variable-path acoustic interferometer; for mass density: Pycnometric method
structure (smiles),measurement,setting,value
CCCCC(CC)COP(=O)(O)OCC(CC)CCCC (stereo not drawn) [bis(2-ethylhexyl) hydrogen phosphate] + O=[N+]([O-])c1ccccc1,viscosity,[1]; x1 = 0.0912,2.409 ± 0.099 mPa·s
same,viscosity,[1]; x1 = 0.1743,2.925 ± 0.12 mPa·s
same,viscosity,[1]; x1 = 0.2624,3.319 ± 0.14 mPa·s
same,viscosity,[1]; x1 = 0.3698,4.274 ± 0.18 mPa·s
same,viscosity,[1]; x1 = 0.4211,4.689 ± 0.19 mPa·s
same,viscosity,[1]; x1 = 0.4779,5.585 ± 0.23 mPa·s
same,viscosity,[1]; x1 = 0.5326,6.687 ± 0.28 mPa·s
same,viscosity,[1]; x1 = 0.6102,8.662 ± 0.36 mPa·s
same,viscosity,[1]; x1 = 0.6933,10.95 ± 0.46 mPa·s
same,viscosity,[1]; x1 = 0.7299,11.91 ± 0.5 mPa·s
same,viscosity,[1]; x1 = 0.7867,13.51 ± 0.57 mPa·s
same,viscosity,[1]; x1 = 0.8598,15.51 ± 0.66 mPa·s
same,viscosity,[1]; x1 = 0.9387,17.75 ± 0.76 mPa·s
same,viscosity,[1]; x1 = 1,19.29 ± 0.83 mPa·s
same,speed of sound,[1]; x1 = 0.0912,1429.5 ± 2.2 m/s
same,speed of sound,[1]; x1 = 0.1743,1415.6 ± 2.3 m/s
same,speed of sound,[1]; x1 = 0.2624,1401.5 ± 2.3 m/s
same,speed of sound,[1]; x1 = 0.3698,1385.2 ± 2.4 m/s
same,speed of sound,[1]; x1 = 0.4211,1377.5 ± 2.4 m/s
same,speed of sound,[1]; x1 = 0.4779,1369.1 ± 2.4 m/s
same,speed of sound,[1]; x1 = 0.5326,1361.1 ± 2.5 m/s
same,speed of sound,[1]; x1 = 0.6102,1349.8 ± 2.5 m/s
same,speed of sound,[1]; x1 = 0.6933,1337.6 ± 2.6 m/s
same,speed of sound,[1]; x1 = 0.7299,1332.2 ± 2.6 m/s
same,speed of sound,[1]; x1 = 0.7867,1323.9 ± 2.6 m/s
same,speed of sound,[1]; x1 = 0.8598,1313.2 ± 2.7 m/s
same,speed of sound,[1]; x1 = 0.9387,1301.9 ± 2.7 m/s
same,speed of sound,[1]; x1 = 1,1293 ± 2.8 m/s
same,mass density,[1]; x1 = 0.0912,1139 ± 4.1 kg/m3
same,mass density,[1]; x1 = 0.1743,1104.1 ± 4.1 kg/m3
same,mass density,[1]; x1 = 0.2624,1075.4 ± 4.1 kg/m3
same,mass density,[1]; x1 = 0.3698,1048.6 ± 4.1 kg/m3
same,mass density,[1]; x1 = 0.4211,1038.1 ± 4.1 kg/m3
same,mass density,[1]; x1 = 0.4779,1027.1 ± 4.1 kg/m3
same,mass density,[1]; x1 = 0.5326,1017.4 ± 4.1 kg/m3
same,mass density,[1]; x1 = 0.6102,1004.6 ± 4.1 kg/m3
same,mass density,[1]; x1 = 0.6933,992.8 ± 4.1 kg/m3
same,mass density,[1]; x1 = 0.7299,988.1 ± 4.1 kg/m3
same,mass density,[1]; x1 = 0.7867,981.4 ± 4.1 kg/m3
same,mass density,[1]; x1 = 0.8598,973.6 ± 4.1 kg/m3
same,mass density,[1]; x1 = 0.9387,966.2 ± 4.1 kg/m3
same,mass density,[1]; x1 = 1,961.3 ± 4.1 kg/m3
CCCCC(CC)COP(=O)(O)OCC(CC)CCCC (stereo not drawn) [bis(2-ethylhexyl) hydrogen phosphate] + Cc1ccccc1,viscosity,[1]; x1 = 0.0896,0.722 ± 0.03 mPa·s
same,viscosity,[1]; x1 = 0.1624,0.907 ± 0.037 mPa·s
same,viscosity,[1]; x1 = 0.2077,1.086 ± 0.045 mPa·s
same,viscosity,[1]; x1 = 0.2898,1.576 ± 0.065 mPa·s
same,viscosity,[1]; x1 = 0.3279,1.914 ± 0.079 mPa·s
same,viscosity,[1]; x1 = 0.4205,3.098 ± 0.13 mPa·s
same,viscosity,[1]; x1 = 0.5082,4.679 ± 0.19 mPa·s
same,viscosity,[1]; x1 = 0.5903,6.432 ± 0.27 mPa·s
same,viscosity,[1]; x1 = 0.6814,8.931 ± 0.38 mPa·s
same,viscosity,[1]; x1 = 0.7388,10.84 ± 0.46 mPa·s
same,viscosity,[1]; x1 = 0.8105,13.17 ± 0.56 mPa·s
same,viscosity,[1]; x1 = 0.8876,15.68 ± 0.67 mPa·s
same,viscosity,[1]; x1 = 0.9427,17.43 ± 0.75 mPa·s
same,viscosity,[1]; x1 = 1,19.29 ± 0.83 mPa·s
same,speed of sound,[1]; x1 = 0.0896,1283.7 ± 2.2 m/s
same,speed of sound,[1]; x1 = 0.1624,1284.5 ± 2.2 m/s
same,speed of sound,[1]; x1 = 0.2077,1285.1 ± 2.2 m/s
same,speed of sound,[1]; x1 = 0.2898,1286 ± 2.3 m/s
same,speed of sound,[1]; x1 = 0.3279,1286.6 ± 2.3 m/s
same,speed of sound,[1]; x1 = 0.4205,1287.4 ± 2.4 m/s
same,speed of sound,[1]; x1 = 0.5082,1288.2 ± 2.4 m/s
same,speed of sound,[1]; x1 = 0.5903,1289 ± 2.5 m/s
same,speed of sound,[1]; x1 = 0.6814,1289.9 ± 2.5 m/s
same,speed of sound,[1]; x1 = 0.7388,1290.5 ± 2.6 m/s
same,speed of sound,[1]; x1 = 0.8105,1291.2 ± 2.6 m/s
same,speed of sound,[1]; x1 = 0.8876,1291.9 ± 2.7 m/s
same,speed of sound,[1]; x1 = 0.9427,1292.5 ± 2.7 m/s
same,speed of sound,[1]; x1 = 1,1293 ± 2.8 m/s
same,mass density,[1]; x1 = 0.0896,884.9 ± 4 kg/m3
same,mass density,[1]; x1 = 0.1624,902.1 ± 4 kg/m3
same,mass density,[1]; x1 = 0.2077,910.5 ± 4 kg/m3
same,mass density,[1]; x1 = 0.2898,923.1 ± 4 kg/m3
same,mass density,[1]; x1 = 0.3279,928.8 ± 4 kg/m3
same,mass density,[1]; x1 = 0.4205,937.6 ± 4 kg/m3
same,mass density,[1]; x1 = 0.5082,944.5 ± 4.1 kg/m3
same,mass density,[1]; x1 = 0.5903,949.3 ± 4.1 kg/m3
same,mass density,[1]; x1 = 0.6814,953.3 ± 4.1 kg/m3
same,mass density,[1]; x1 = 0.7388,955.2 ± 4.1 kg/m3
same,mass density,[1]; x1 = 0.8105,957.1 ± 4.1 kg/m3
same,mass density,[1]; x1 = 0.8876,958.8 ± 4.1 kg/m3
same,mass density,[1]; x1 = 0.9427,960.1 ± 4.1 kg/m3
same,mass density,[1]; x1 = 1,961.3 ± 4.1 kg/m3
Cc1ccccc1 [toluene],viscosity,[2],0.528 ± 0.022 mPa·s
same,speed of sound,[2],1282.6 ± 2.1 m/s
same,mass density,[2],856.2 ± 4 kg/m3
Clc1ccccc1 [chlorobenzene] + CCCCC(CC)COP(=O)(O)OCC(CC)CCCC,viscosity,[1]; x2 = 0,0.724 ± 0.03 mPa·s
same,speed of sound,[1]; x2 = 0,1251.8 ± 2.1 m/s
same,mass density,[1]; x2 = 0,1095.2 ± 4 kg/m3
Clc1ccccc1 [chlorobenzene],viscosity,[2],0.724 ± 0.03 mPa·s
same,speed of sound,[2],1251.8 ± 2.1 m/s
same,mass density,[2],1095.2 ± 4 kg/m3

# — the NIST ThermoML archive (doi:10.1016/j.jct.2015.09.036)
